From article PMC8537218, “Discovery of a Novel Class of Norovirus Inhibitors with High Barrier of Resistance” (Pharmaceuticals, 2021)
Where “and” joins values, the source holds several entries; their conditions need not be identical. Identical values can stand only once. Entries after “also recorded” stand apart in the source; their conditions may differ. Like-named read-outs stand apart in the source and are kept apart here.

Legend:
[1] = test system: HuNoV GI.1 replicon (Norwalk replicon); assay: HuNoV GI.1 replicon assay in HG23 cells (RT-qPCR); assay type: cell-based, Human norovirus
Description: HuNoV GI.1 replicon: The experiment was performed as described earlier with minor modifications. In short, HG23 cells (7.5 × 10^2 cells/well) were seeded into the wells of a 96-well plate without G418 (Geneticin Selective Antibiotic). After 24 h of incubation, serial dilutions of compounds were added. Cells were further incubated for 72 h, then cells were collected for RNA load quantification by RT-qPCR. To determine relative levels of Norwalk virus replicon RNA, β-actin was used as a normalizer and ratios were calculated as previously described.

[2] = test system: Murine norovirus type 1, strain CW1; assay: MNV-induced CPE reduction assay (MTS read-out) in RAW 264.7 cells; assay type: cell-based; settings: MNV CW1, RAW 264.7 cells, read-out: MNV EC50 ± SD
Description: Norovirus: The experiment was performed as described earlier. In short, RAW 264.7 cells (1 × 10^4 cells/well) were infected with MNV.CW1 in the presence of a dilution series of compounds. Antiviral activity and cytotoxicity were determined using a colometric assay using 3-(4,5-dimethylthiazol-2-yl)-5-(3-carboxymethoxyphenyl)-2-(4-sulfophenyl)-2H-tetrazolium (MTS). The 50% effective concentration (EC50) was defined as the compound concentration that protected 50% of the cells from CPE. The cell viability % was calculated as (ODtreated/ODCC) […] and the 50% cytotoxic concentration (CC50) was defined as the compound concentration that reduces the number of viable cells by 50%.

MNV [3] = assay: Time-of-drug-addition assay (TOA) in MNV-infected RAW 264.7 cells; assay type: cell-based, Murine norovirus
Description: RAW 264.7 cells (4 × 10^5 cells/mL) were infected with MNV (MOI of 1). After 1 h at 4 °C, cells were washed with cold (4 °C) DMEM to remove unbound viruses. Cells were incubated at 37 °C to start the infection. To study the replication kinetics of MNV supernatant and cells were harvested, from untreated cultures, every 2 h until 24 h post-infection (pi) and viral RNA was quantified by RT-qPCR. In parallel, another set of infected cultures were treated with compound. The compound was added at 2 h intervals and cultures were further incubated until 24 h pi, supernatant and cells were collected separately for determination of the viral RNA by RT-qPCR. The isolation of the extracellular MNV RNA from cell culture supernatant was done by the NucleoSpin RNA Virus Kit (Macherey–Nagel), and the intracellular RNA was extracted from cells by the RNeasy kit (Qiagen).

[4] = test system: MNV.CW3/S131T and MNV.CW3/Y154F; assay: Antiviral assay on reverse-engineered MNV.CW3 mutant viruses (S131T, Y154F); assay type: cell-based, Murine norovirus; settings: single mutations S131T or Y154F in MNV backbone
Description: The desired mutations were introduced into the MNV.CW3 cDNA clones using the QuikChange II XL mutagenesis kit (Agilent) according to the manufacturer’s instructions. The presence of the desired mutation in the produced construct was confirmed by PCR and sequencing was done by Macrogen Inc. Sequences were analyzed and mutations were detected using the Geneious software.
The MNV.CW3 mutant viral stocks were obtained by transfecting the mutated plasmid pMNV CW3 (kindly provided by Prof. Wobus, University of Michigan) in Huh 7 Lunet cells expressing the MNV receptor CD300lf (kindly provided by Prof. Taube, University of Lübeck). Huh-7 CD300lf cells were cultured under selective pressure of G418. The Huh-7 CD300lf cells were seeded in 6-well plates at a density of 2 × 10^5 cells/mL in 2.5 mL of complete media. After 24 h, the cells were transfected with 2.5 μg of pMNV CW3 plasmid DNA using the TransIT mRNA Transfection Kit (Mirus Bio Corporation) according to the manufacturer’s protocol. Red fluorescent protein (RFP) was used as a positive control for transfection. Transfected cells were incubated for 48 h, cells underwent two freeze thaw cycles and the virus was harvested from the supernatants after centrifugation (10 min, 1000× g) and stored at −80 °C. Virus stocks were passaged for three times on BV-2 cells and followed by two consecutive passages on RAW 264.7 cells. Viral titers were determined by serial dilutions on RAW 264.7 cells seeded in 96-well plates.
(§1) The assessment of the antiviral activity of compounds on resistant viruses was performed similarly as the regular antiviral assay on MNV. First, the titer of the resistant viruses was determined by endpoint titration. A concentration of 30× TCID50 was used for each virus in the antiviral assays. RAW 264.7 cells (1 × 10^4 cells/well) were seeded in the presence of a dilution series of compounds and infected. Antiviral activity was determined using the MTS method. The 50% effective concentration (EC50) was defined as the compound concentration that protected 50% of the cells from CPE.

MNV RdRp = MNV RdRp (Norovirus, UniProt Q80J95); assay: In vitro enzymatic inhibition assay with MNV RdRp; assay type: biochemical, Murine norovirus; settings: 3.4 µM MNV RdRp, poly(U) template, 100 µM ATP, compound 0 to 100 µM
Description: Compound 6 was tested to determine its effects on the polymerase activity. The formation of dsRNA, from a single-stranded poly(U) template (Sigma-Aldrich, 10 µg) and 100 µM ATP, was followed for 1 h at 30 °C on a TECAN Infinite 200 PRO microplate reader, measuring the growth of PicoGreen fluorescence (Ex/Em = 485/530 nm) after the addition of 3.4 µM MNV RdRp and of increasing amounts of compound 6 (from 0 to 100 µM), in a reaction mixture containing 20 mM Tris/HCl (pH 7.5), 25 mM NaCl, 0,3 mM MnCl2, 5 mM MgCl2, 1 mM DTT, 2 U RiboLock Ribonuclease inhibitor (Life technologies). The final fluorescence values were calculated as the average of four independent experiments. Measurement of the activity (i.e., linear slope of fluorescence increase in time) vs. compound 6 concentration was used to estimate the IC50 value of the compound with the program GraFit5 (Erithacus software).

[5] = test system: compound 6res MNV variants; assay: Antiviral assay on selected compound 6res MNV variants in RAW 264.7 cells; assay type: cell-based, Murine norovirus
Description: RAW 264.7 cells (1 × 10^4 cells/well) were seeded into the wells of 96-well plate and were infected with MNV.CW1 in the presence of a dilution series of compounds. When CPE was visible in the virus control (no compound), all the wells were scored for visible CPE. Virus was harvested from the wells in which CPE was observed under the highest compound pressure. The resistant virus was then diluted to 1:5 and used to infect a new 96-well plate under the same conditions to continue. […] MNV^res viruses were analyzed by deep sequencing by the group of Prof. Matthijnssens as described previously. The assembled sequence of the untreated MNV, that was passaged in parallel, was used as reference to align the MNV variants that were under compound pressure.
as §1

MNV [6] = assay: MNV virus yield assay, viral RNA by RT-qPCR; assay type: cell-based, Murine norovirus; settings: viral RNA levels by RT-qPCR
Description: The supernatants of treated or untreated infected cells were harvested. The viral RNA was isolated from supernatant using the NucleoSpin RNA Virus Kit (Macherey–Nagel), according to the manufacturer’s protocol and was quantified by RT-qPCR. A one-step RT-qPCR was performed in a reaction mixture of 20 μL containing 10 μL reaction mix from the iTaq Universal Probes One-Step Kit (Bio-Rad), 0.5 μL reverse transcriptase, 4 μL template RNA, primers, and probe.

Chain of MNV RdRp (Q80J95 1178-1687): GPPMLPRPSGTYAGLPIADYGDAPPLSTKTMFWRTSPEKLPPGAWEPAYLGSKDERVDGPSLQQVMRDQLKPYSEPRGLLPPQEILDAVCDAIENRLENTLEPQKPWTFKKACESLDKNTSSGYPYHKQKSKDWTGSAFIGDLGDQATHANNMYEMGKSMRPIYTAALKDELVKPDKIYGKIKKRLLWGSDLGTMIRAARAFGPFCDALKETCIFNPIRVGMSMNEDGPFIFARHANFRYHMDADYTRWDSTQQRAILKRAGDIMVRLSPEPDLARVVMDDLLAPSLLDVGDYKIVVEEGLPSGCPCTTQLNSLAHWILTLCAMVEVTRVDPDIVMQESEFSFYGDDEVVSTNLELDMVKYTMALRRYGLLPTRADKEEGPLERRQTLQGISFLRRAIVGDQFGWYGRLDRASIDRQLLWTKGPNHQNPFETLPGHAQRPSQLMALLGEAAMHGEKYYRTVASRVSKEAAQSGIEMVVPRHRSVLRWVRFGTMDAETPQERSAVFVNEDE

## Cc1cc(C)cc(S(=O)(=O)c2c(C(=O)NCc3ccc(CO)cc3)[nH]c3ccc(Cl)cc23)c1 [compound 6, 5-Chloro-3-((3,5-dimethylphenyl)sulfonyl)-N-(4-(hydroxymethyl)benzyl)-1H-indole-2-carboxamide]
[1]; Norovirus, HG23, 72 h, read-out: HuNoV Replicon EC50 ± SD (µM), Norwalk replicon (human GI.1), HG23 cells, 72 h, replicon RNA by RT-qPCR
  EC50: 1.24 µM
[1]; Norwalk replicon (human GI.1), HG23 cells, 72 h, replicon RNA by RT-qPCR, read-out: HuNoV Replicon EC50 ± SD
  EC50: 1.2 µM and ~1.7 µM
[1]; host cells of HuNoV GI.1 replicon assay
  adverse effects on the host cells: without adverse effects on the host cells
[1]; read-out: HuNoV Replicon EC50 ± SD, Norwalk replicon (human GI.1), HG23 cells, 72 h, replicon RNA by RT-qPCR
  EC50: 1.27 ± 0.76 µM
[2]; RAW264.7, concentration inhibiting norovirus induced cell death (CPE) by 50%
  EC50: 0.2 ± 0.1 µM
[2]; concentration inhibiting norovirus induced cell death (CPE) by 50%
  EC50: 0.16 ± 0.06 µM
MNV [3]; MNV MOI 1, RAW 264.7 cells, compound added at 2 h intervals
  time of addition after which the antiviral effect was lost: 6–8 h pi
MNV [3]; time-of-addition experiment
  step of the MNV replication cycle at which the compound acts: onset of the viral genome replication
other
  melting point: 124 to 126 °C
[4]
  shift in EC50 / sensitivity of mutant viruses: no shift in EC50
MNV RdRp
  direct inhibition of the norovirus polymerase (competition with natural substrate): no direct competition; also recorded: could not directly inhibit the active site of the enzyme
[5]; mutants 1 and 3 together
  shift in EC50: 6–8 fold
[5]; resistant variant mutant 1 (first value), after 30 passages
  shift in EC50 values: 8.6 fold
[5]; resistant variant mutant 3, after 30 passages
  shift in EC50 values: 6.2 fold
MNV [6]
  EC50: 0.21 ± 0.03 µM
